# Read-outs that look alike come from different tables or passages of the source. Marks after values point to notes of the source that are not given here.
# What was measured:
# [1] = system: cells; settings: for Photopotentiation Factor: LD50 dark divided by LD50 light; for LD50 Light: light dose not fixed, 0.75-1.0 J/cm2 of 630 nm light
# Description: As used herein, “photopotentiation factor” refers to the property of the compound(s) to exert light- or sound-mediated toxicity in excess of its (their) inherent unactivated toxicity. […] Where the term “LD50” has been used above, the term “IC50” may be substituted, to address the bioassays that concern metabolic activity rather than the endpoint of lethality, loss of reproductive capability, or clonogenic death. The relative photoactivation efficiency of a compound may also be determined using a clonogenic assay, an assay that is well known to those skilled in the art.
# In accordance with the present invention, a desirable PQP derivative is one that is non-toxic (or of low toxicity) at high drug concentrations without activation, i.e., without light (also referred to as “dark”), and/or without sound, and is toxic at low concentrations when light of the appropriate wavelength, or sound of the appropriate frequency, is applied. As is recognized by those skilled in the art, the most desirable compounds are those that provide a wide range of non-toxic doses in an unactivated state, as this characteristic provides an increased safety factor for the patient.
# [2] = Singlet oxygen (1O2) yield; assay type: physicochemical
# [3] = Light absorption properties (red spectral region, 630 nm); assay type: physicochemical; settings: for A630: absorbance at 630 nm
# [4] = system: HL-60 cells; assay: Sonodynamic toxicity (insonation, surviving fraction); assay type: cell-based, human
# Experimental: Sonodynamic toxicity of two perylenequinone derivatives in human promyelocytic leukemia cells in vitro, with respect to a positive control, hematoporphyrin at 1 mM.
# HL-60 cells were treated with perylenequinone sensitizers and insonated as described above. The surviving fractions were plotted against sensitizer concentration. […] Cell survival decreased steeply over the next two decades of sensitizer concentration.
# [5] = system: sarcoma 180 cells; settings: cited from earlier work
# [6] = Pharmacokinetics / tissue uptake of 14C-HB in tumor-bearing mice; assay type: in vivo, Balb/c mice
# Description: The excellent fluorescence properties of the hypocrellins and derivatives provide a valuable tool to monitor intracellular uptake and distribution kinetics by confocal laser scanning microscopy (CLSM). Each drug has unique properties of uptake and distribution (Miller et al 1995 a, b). The rate cells take up drug in humans […] can be determined using similar protocols as Liu et al 1995 and Miller et al., 1995 a or b). In vivo, the ideal time between i.v. injection or administration of the drug and light administration is preferably when tumor concentration of the photodynamic agent is optimal with respect to normal tissues, typically up to about 24 hours, but as long as 48 hours or more (Table 2).
# Pharmacokinetics of ^14C-HB in Balb/c mice bearing the EMT6/Ed tumor in one flank. […] With respect to skin, the optimal therapeutic ratio for tumor occurs 2 hours following drug administration.
compound,measurement,setting,value
"2-(N,N-diethyl-amino) ethylamine-HB [HBDD-R2]",Photopotentiation Factor,[1],>3.3
same,LD50 Light,[1],7.5 µM
same,^1O2 Yield,[2],0.36
"2-(N,N-dimethyl-amino) propylamine-HB [HBDP-R1]",toxicity (in words),[1],average or lower than average toxicity
same,Photopotentiation Factor,[1],>16.6-50
same,LD50 Light,[1],0.5 to 1.5 µM
same,LD50 Dark,[1]; without light,>25 µM
same,^1O2 Yield,[2],0.42
2-morpholino-ethyl-aminated-HB [HBAM-R1],Abs. Peak in red Spectral region,[3],658 nm
same,LD50 Dark,[1],>25 µM
same,Photopotentiation Factor,[1],>6.25
same,LD50 Light,[1],4 µM
same,^1O2 Yield,[2],0.70
"5,8-dibromo-HB [DBHB]",maximum sonotoxic effect,"[4]; 100 μM to 1000 μM, versus 1000 μM Hp control",comparable to that of the Hp control
same,sonotoxicity,[4]; up to 100 μM,negligible sonotoxicity
same,LD50 Dark,[1],10 µM
same,Photopotentiation Factor,[1],3.3
same,LD50 Light,[1],3 µM
same,^1O2 Yield,[2],0.62
"COc1cccc2c1C(=O)c1c(O)c3c(c(O)c1C2=O)CC(O)(C(=O)COC(=O)CCCCCC(=O)O)CC3OC1OC(C)C(O)C(O)C1F (stereo not shown) [FAD 104, 3′-deamino-2′-fluoro-3′-hydroxydoxorubicin-14-pimelate]",rate of ultrasound-induced cell damage,"[5]; 80 μM, insonated, versus ultrasound alone",doubled
same,cell damage with compound alone,[5]; no ultrasound,no cell damage
Cystamine-HB [HBAC-R1],Abs. Peak in red Spectral region,[3],646 nm
same,Extinction Coefficient (× 10^−3) (630 nm),[3],3.88 × 10^−3
same,A630,[3],0.388
same,Amax/solvent,[3]; solvent CHCl3,0.417/CHCl3
same,Photopotentiation Factor,[1],12.5
same,LD50 Light,[1],1 µM
same,LD50 Dark,[1]; without light,12.5 µM
same,^1O2 Yield,[2],0.40
Cystamine-HB [HBAC-R2],Abs. Peak in red Spectral region,[3],600 nm
same,Extinction Coefficient (× 10^−3) (630 nm),[3],2.44 × 10^−3
same,A630,[3],0.244
same,Amax/solvent,[3]; solvent DMSO,0.337/DMSO
same,Photopotentiation Factor,[1],2.5
same,LD50 Light,[1],5 µM
same,LD50 Dark,[1]; without light,12.5 µM
same,^1O2 Yield,[2],0.31
Deacetylated-HA [DAHA],Abs. Peak in red Spectral region,[3],622 nm
same,Extinction Coefficient (× 10^−3) (630 nm),[3],5.70 × 10^−3
same,A630,[3],0.570
same,LD50 Dark,[1],>25 µM
same,LD50 Light,[1],>5 µM
same,^1O2 Yield,[2],0.51
Ethanolamine-HB [HBEA-R2],Photopotentiation Factor,[1],3.3
same,LD50 Light,[1],7.5 µM
same,LD50 Dark,[1]; without light,25 µM
same,^1O2 Yield,[2],0.70
Ethylenediamine-HB [HBED-R2],Photopotentiation Factor,[1],5-8.3
same,LD50 Light,[1],3 to 5 µM
HA-Mg^++(Ac2),Abs. Peak in red Spectral region,[3],616 nm
same,Extinction Coefficient (× 10^−3) (630 nm),[3],4.47 × 10^−3
same,A630,[3],0.447
same,Amax/solvent,[3]; solvent EtOH,0.958/EtOH
same,LD50 Dark,[1],>25 µM
same,LD50 Light,[1],>5 µM
same,^1O2 Yield,[2],0.71
HB-Mg^++,Abs. Peak in red Spectral region,[3],622 nm
same,Extinction Coefficient (× 10^−3) (630 nm),[3],5.27 × 10^−3
same,A630,[3],0.527
same,Amax/solvent,[3]; solvent EtOH,0.604/EtOH
same,LD50 Dark,[1],10 µM
same,Photopotentiation Factor,[1],10
same,LD50 Light,[1],1 µM
same,^1O2 Yield,[2],0.53
"Hypocrellin A [HA, reference compound]",Abs. Peak in red Spectral region,[3],658* nm
same,Extinction Coefficient (× 10^−3) (630 nm),[3],0.86 × 10^−3
same,A630,[3],0.086
same,Amax/solvent,[3]; solvent DMF,0.093/DMF
same,Photopotentiation Factor,[1],3-5
same,LD50 Light,[1],3 to 5 µM
same,LD50 Dark,[1]; without light,15 µM
same,^1O2 Yield,[2],0.84
Methylamine-HB [HBMA-IV],Photopotentiation Factor,[1],8.5
same,LD50 Light,[1],1 µM
^14C-Hypocrellin B,clearance from blood,[6]; Balb/c mice bearing EMT6/Ed tumor,rapid clearance
same,Tissue Uptake of ^14C-Hypocrellin B,"[6]; Bone, 0 Hours","19,825 ± 2,300 dpm/g"
same,Tissue Uptake of ^14C-Hypocrellin B,"[6]; Bone, 2 Hours","3,955 ± 2,070 dpm/g"
same,Tissue Uptake of ^14C-Hypocrellin B,"[6]; Bone, 24 Hours",660 ± 215 dpm/g
same,Tissue Uptake of ^14C-Hypocrellin B,"[6]; Bone, 48 Hours","1,125 ± 310 dpm/g"
same,Tissue Uptake of ^14C-Hypocrellin B,"[6]; Brain, 0 Hours","17,560 ± 560 dpm/g"
same,Tissue Uptake of ^14C-Hypocrellin B,"[6]; Brain, 2 Hours","3,855 ± 170 dpm/g"
same,Tissue Uptake of ^14C-Hypocrellin B,"[6]; Brain, 24 Hours","2,840 ± 275 dpm/g"
same,Tissue Uptake of ^14C-Hypocrellin B,"[6]; Brain, 48 Hours",845 ± 90 dpm/g
same,Tissue Uptake of ^14C-Hypocrellin B,"[6]; Fat, 0 Hours","20,550 ± 715 dpm/g"
same,Tissue Uptake of ^14C-Hypocrellin B,"[6]; Fat, 2 Hours","38,570 ± 5,610 dpm/g"
same,Tissue Uptake of ^14C-Hypocrellin B,"[6]; Fat, 24 Hours","19,550 ± 2,210 dpm/g"
same,Tissue Uptake of ^14C-Hypocrellin B,"[6]; Fat, 48 Hours","19,335 ± 2,335 dpm/g"
same,Tissue Uptake of ^14C-Hypocrellin B,"[6]; Heart, 0 Hours","113,920 ± 3,365 dpm/g"
same,Tissue Uptake of ^14C-Hypocrellin B,"[6]; Heart, 2 Hours","5,135 ± 910 dpm/g"
same,Tissue Uptake of ^14C-Hypocrellin B,"[6]; Heart, 24 Hours","7,835 ± 1,810 dpm/g"
same,Tissue Uptake of ^14C-Hypocrellin B,"[6]; Heart, 48 Hours","2,325 ± 245 dpm/g"
same,Tissue Uptake of ^14C-Hypocrellin B,"[6]; Ileum, 0 Hours","45,400 ± 3,600 dpm/g"
same,Tissue Uptake of ^14C-Hypocrellin B,"[6]; Ileum, 2 Hours","20,280 ± 2,850 dpm/g"
same,Tissue Uptake of ^14C-Hypocrellin B,"[6]; Ileum, 24 Hours","5,800 ± 645 dpm/g"
same,Tissue Uptake of ^14C-Hypocrellin B,"[6]; Ileum, 48 Hours","2,840 ± 595 dpm/g"
same,Tissue Uptake of ^14C-Hypocrellin B,"[6]; Kidney, 0 Hours","67,344 ± 950 dpm/g"
same,Tissue Uptake of ^14C-Hypocrellin B,"[6]; Kidney, 2 Hours","20,855 ± 3,955 dpm/g"
same,Tissue Uptake of ^14C-Hypocrellin B,"[6]; Kidney, 24 Hours","12,050 ± 1,845 dpm/g"
same,Tissue Uptake of ^14C-Hypocrellin B,"[6]; Kidney, 48 Hours","4,535 ± 765 dpm/g"
same,Tissue Uptake of ^14C-Hypocrellin B,"[6]; Liver, 0 Hours","394,190 ± 7,540 dpm/g"
same,Tissue Uptake of ^14C-Hypocrellin B,"[6]; Liver, 2 Hours","24,620 ± 4,885 dpm/g"
same,Tissue Uptake of ^14C-Hypocrellin B,"[6]; Liver, 24 Hours","22,495 ± 4,440 dpm/g"
same,Tissue Uptake of ^14C-Hypocrellin B,"[6]; Liver, 48 Hours","9,215 ± 720 dpm/g"
same,Tissue Uptake of ^14C-Hypocrellin B,"[6]; Lung, 0 Hours","651,100 ± 42,668 dpm/g"
same,Tissue Uptake of ^14C-Hypocrellin B,"[6]; Lung, 2 Hours","8,580 ± 655 dpm/g"
same,Tissue Uptake of ^14C-Hypocrellin B,"[6]; Lung, 24 Hours",3870 ± 525 dpm/g
same,Tissue Uptake of ^14C-Hypocrellin B,"[6]; Lung, 48 Hours","2,975 ± 360 dpm/g"
same,Tissue Uptake of ^14C-Hypocrellin B,"[6]; Muscle, 0 Hours","13,665 ± 600 dpm/g"
same,Tissue Uptake of ^14C-Hypocrellin B,"[6]; Muscle, 2 Hours","4,050 ± 940 dpm/g"
same,Tissue Uptake of ^14C-Hypocrellin B,"[6]; Muscle, 24 Hours","2,875 ± 560 dpm/g"
same,Tissue Uptake of ^14C-Hypocrellin B,"[6]; Muscle, 48 Hours","1,015 ± 205 dpm/g"
same,Tissue Uptake of ^14C-Hypocrellin B,"[6]; Pancreas, 0 Hours","32,010 ± 2,165 dpm/g"
same,Tissue Uptake of ^14C-Hypocrellin B,"[6]; Pancreas, 2 Hours","13,185 ± 12,055 dpm/g"
same,Tissue Uptake of ^14C-Hypocrellin B,"[6]; Pancreas, 24 Hours","32,390 ± 11,840 dpm/g"
same,Tissue Uptake of ^14C-Hypocrellin B,"[6]; Pancreas, 48 Hours","16,915 ± 3,845 dpm/g"
same,Tissue Uptake of ^14C-Hypocrellin B,"[6]; Serum, 0 Hours","69,975 ± 1,925 dpm/g"
same,Tissue Uptake of ^14C-Hypocrellin B,"[6]; Serum, 2 Hours","1,655 ± 170 dpm/g"
same,Tissue Uptake of ^14C-Hypocrellin B,"[6]; Serum, 24 Hours","1,020 ± 160 dpm/g"
same,Tissue Uptake of ^14C-Hypocrellin B,"[6]; Serum, 48 Hours",700 ± 240 dpm/g
same,Tissue Uptake of ^14C-Hypocrellin B,"[6]; Skin, 0 Hours","14,970 ± 74 dpm/g"
same,Tissue Uptake of ^14C-Hypocrellin B,"[6]; Skin, 2 Hours","3,130 ± 221 dpm/g"
same,Tissue Uptake of ^14C-Hypocrellin B,"[6]; Skin, 24 Hours","2,700 ± 170 dpm/g"
same,Tissue Uptake of ^14C-Hypocrellin B,"[6]; Skin, 48 Hours","1,590 ± 250 dpm/g"
same,Tissue Uptake of ^14C-Hypocrellin B,"[6]; Spleen, 0 Hours","151,870 ± 9,395 dpm/g"
same,Tissue Uptake of ^14C-Hypocrellin B,"[6]; Spleen, 2 Hours","58,900 ± 4,205 dpm/g"
same,Tissue Uptake of ^14C-Hypocrellin B,"[6]; Spleen, 24 Hours","14,970 ± 3,215 dpm/g"
same,Tissue Uptake of ^14C-Hypocrellin B,"[6]; Spleen, 48 Hours","26,700 ± 11,105 dpm/g"
same,Tissue Uptake of ^14C-Hypocrellin B,"[6]; Stomach, 0 Hours","28,280 ± 145 dpm/g"
same,Tissue Uptake of ^14C-Hypocrellin B,"[6]; Stomach, 2 Hours","21,630 ± 3,345 dpm/g"
same,Tissue Uptake of ^14C-Hypocrellin B,"[6]; Stomach, 24 Hours","34,385 ± 8,795 dpm/g"
same,Tissue Uptake of ^14C-Hypocrellin B,"[6]; Stomach, 48 Hours","12,460 ± 975 dpm/g"
same,Tissue Uptake of ^14C-Hypocrellin B,"[6]; Tumor, 0 Hours","7,885 ± 270 dpm/g"
same,Tissue Uptake of ^14C-Hypocrellin B,"[6]; Tumor, 2 Hours","3,775 ± 400 dpm/g"
same,Tissue Uptake of ^14C-Hypocrellin B,"[6]; Tumor, 24 Hours","2,950 ± 80 dpm/g"
same,Tissue Uptake of ^14C-Hypocrellin B,"[6]; Tumor, 48 Hours","2,165 ± 470 dpm/g"
same,time of optimal therapeutic ratio for tumor with respect to skin,[6]; following drug administration,2 h
n-butylaminated HB [HBBA-R2],Abs. Peak in red Spectral region,[3],616* nm
same,Extinction Coefficient (× 10^−3) (630 nm),[3],6.19 × 10^−3
same,A630,[3],0.619
same,Amax/solvent,[3]; solvent CHCl3,0.628/CHCl3
same,LD50 Dark,[1],>100 µM
same,Photopotentiation Factor,[1],167-500
same,LD50 Light,[1],0.2 to 0.6 µM
same,cell killing with light,[1]; wavelengths between at least 630 and 688 nm,capable of killing cells
same,^1O2 Yield,[2],0.32
